Data taken from PubChem BioAssay (NCI).
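A five-concentration, 48-hour dose response in 96-well plates underlies each endpoint, interpolated linearly between surrounding concentrations. GI50 is the concentration that inhibits growth by half. Definition used: TGI = concentration required for complete inhibition of growth.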

Columns and labels:
Assay in all cases: NCI-60 cell line screen, 48 h
NCI-H460 lung = system: NCI-H460 lung
K-562 leukemia = system: K-562 leukemia
RXF 393 renal = system: RXF 393 renal
KM12 colon = system: KM12 colon
TK-10 renal = system: TK-10 renal
IGROV1 ovarian = system: IGROV1 ovarian
SNB-75 CNS = system: SNB-75 CNS
SK-OV-3 ovarian = system: SK-OV-3 ovarian
OVCAR-8 ovarian = system: OVCAR-8 ovarian
COLO 205 colon = system: COLO 205 colon

| Compound | TGI (NCI-H460 lung) | TGI (K-562 leukemia) | TGI (RXF 393 renal) | TGI (KM12 colon) | TGI (TK-10 renal) | TGI (IGROV1 ovarian) | TGI (SNB-75 CNS) | TGI (SK-OV-3 ovarian) | TGI (OVCAR-8 ovarian) | TGI (COLO 205 colon) | GI50 (NCI-H460 lung) | GI50 (K-562 leukemia) | GI50 (RXF 393 renal) | GI50 (KM12 colon) | GI50 (TK-10 renal) | GI50 (IGROV1 ovarian) | GI50 (SNB-75 CNS) | GI50 (SK-OV-3 ovarian) | GI50 (OVCAR-8 ovarian) | GI50 (COLO 205 colon) |
| --- | --- | --- | --- | --- | --- | --- | --- | --- | --- | --- | --- | --- | --- | --- | --- | --- | --- | --- | --- | --- |
| OC1c2ccccc2C2(O)C1C(c1ccccc1)C(c1ccccc1)C2(O)c1ccccc1 (stereo not given) | 19.5 µM | 50 µM | 76.2 µM | 25.3 µM | 85.4 µM | 82.9 µM | 46.2 µM | 64 µM | 43.5 µM | 30.7 µM | – | – | – | – | – | – | – | – | – | – |
| CCCNCCCC(NC(C)=O)C(=O)NCc1ccccc1 (stereo not given) | > 100 µM | > 100 µM | > 100 µM | > 100 µM | > 100 µM | > 100 µM | > 100 µM | > 100 µM | > 100 µM | > 100 µM | – | – | – | – | – | – | – | – | – | – |
| CCCc1c(CC)c(=N)c2ccccc2n1C | > 100 µM | > 100 µM | > 100 µM | > 100 µM | > 100 µM | > 100 µM | > 100 µM | > 100 µM | > 100 µM | > 100 µM | > 100 µM | 51.1 µM | > 100 µM | 39.3 µM | > 100 µM | > 100 µM | 74.1 µM | > 100 µM | 48.9 µM | > 100 µM |
| CC(=O)N[C@@H]1C(O)CN2C(=O)C(=O)O[C@H](C(O)CO)[C@@H]12 (stereo not given in full) | > 100 µM | > 100 µM | > 100 µM | > 100 µM | > 100 µM | > 100 µM | > 100 µM | > 100 µM | > 100 µM | > 100 µM | – | – | – | – | – | – | – | – | – | – |
| CCCCCCCCCCCCCCN | > 100 µM | > 100 µM | > 100 µM | > 100 µM | > 100 µM | > 100 µM | > 100 µM | > 100 µM | > 100 µM | > 100 µM | – | – | – | – | – | – | – | – | – | – |
| C[C@H](NC(=O)[C@@H]1CSSC[C@@H](NC(=O)c2nc3ccccc3cc2O)C(=O)NCC(=O)N1C)c1ccccc1 | 7.98 µM | 3.13 µM | 3.06 µM | 8.56 µM | 15.5 µM | 12.4 µM | 43.1 µM | 21.2 µM | 17.7 µM | 2.34 µM | 1.25 µM | 0.663 µM | 1.31 µM | 0.629 µM | 8.06 µM | 2.59 µM | 7.62 µM | 5.59 µM | 5.16 µM | 0.963 µM |
| COc1ccc(Nc2ncc(Br)c(NCCCNC(=O)C3CCC3)n2)cc1 | 31.5 µM | > 100 µM | 8.56 µM | > 100 µM | 38.7 µM | 44.5 µM | 12.1 µM | 36.6 µM | > 100 µM | 30.8 µM | 8.34 µM | 9.27 µM | 2.3 µM | 8.06 µM | 5.46 µM | 14.6 µM | 2.98 µM | 14.1 µM | 21.1 µM | 10.6 µM |
| CCC(=O)O[C@H]1CC[C@H]2[C@@H]3CC[C@H]4CC(=O)[C@H](C)C[C@]4(C)[C@H]3CC[C@]12C | 97.4 µM | > 59.5 µM | > 100 µM | > 100 µM | > 100 µM | > 100 µM | > 100 µM | > 100 µM | > 100 µM | > 100 µM | 13 µM | 5.51 µM | 30.5 µM | 34.6 µM | 43.7 µM | > 60.5 µM | > 100 µM | > 81.7 µM | 43.1 µM | 28.3 µM |
